Experimental data as given in BindingDB's records for patent US10696682 (G1 Therapeutics, 2020).

target: Cyclin-dependent kinase 2/G1/S-specific cyclin-E1 (Homo sapiens, UniProt P24941+P24864); assay: Biological Activity Assay
Procedure: Kinase enzymatic reactions were performed in 384-well microplates using a 12-channel Caliper LabChip instrument as a detection device. […] As substrate and product are separated, two peaks of fluorescence are observed. Change in the relative fluorescence intensity of the substrate and product peaks is the parameter measured, reflecting enzyme activity. In the presence of an inhibitor, the ratio between product and substrate is altered. […] Potential inhibitor compounds (as HCl salts) were tested using 12-point dose response curves in single point at the Km for ATP.

IC50, > 100 µM:
CC(C)C1CNC(=O)C2=CC3C=NC(Nc4ccc(N5CCN(C)CC5)cn4)=NC3N21 (centres undefined) [US10696682, Compound 7]
CN1CCN(c2ccc(NC3=NC4C(C=N3)C=C3C(=O)N[C@H]5CCC[C@@H]5N34)nc2)CC1 (some centres undefined) [US10696682, Compound 48]
CC(C)C[C@H]1CN(C)C(=O)C2=CC3C=NC(Nc4ccc(N5CCNCC5)cn4)=NC3N21 (some centres undefined) [US10696682, Compound 15]
CC(C)[C@H]1CN(C)C(=O)C2=CC3C=NC(Nc4ccc(N5CCNCC5)cn4)=NC3N21 (some centres undefined) [US10696682, Compound 11]
CC(C)CC1CN(C)C(=O)C2=CC3C=NC(Nc4ccc(N5CCNCC5)cn4)=NC3N21 (centres undefined) [US10696682, Compound 47]
CN1CCN2C(=CC3C=NC(Nc4ccc(N5CCNCC5)cn4)=NC32)C1=O (centres undefined) [US10696682, Compound 5]
CN1CC2(CCCC2)N2C(=CC3C=NC(Nc4ccc(N5CCNCC5)cn4)=NC32)C1=O (centres undefined) [US10696682, Compound 31]
CCC(C)[C@H]1CN(C)C(=O)C2=CC3C=NC(Nc4ccc(N5CCNCC5)cn4)=NC3N21 (some centres undefined) [US10696682, Compound 19]
CCC(C)[C@H]1CN(C)C(=O)C2=CC3C=NC(Nc4ccc(N5CCN(C)CC5)cn4)=NC3N21 (some centres undefined) [US10696682, Compound 18]
